From patent US20150057350A1, “FIBROSIS BIOMARKERS AND METHODS OF USING SAME” (ABBOTT LABORATORIES, priority 2013, published 2015)

Columns and labels:
Assay type in all cases: in vivo
[1] = test system: development of fibrosis; assay: 10-day bed rest study: all 3 fibrosis markers taken together; conditions: prolonged period of physical inactivity, human subject
Text: The following inclusion criteria were verified at screening: male or female ≧60 to ≦79 years of age; body mass index (BMI) ≧20 but ≦35; ambulatory with a Short Performance Physical Battery (SPPB) score of ≧9 (fully functional with no mobility limitations); and compliance with prescribed activity level. Exclusion criteria ruled out subjects who had undergone recent major surgery, had active malignancy (excepting basal or squamous cell skin carcinoma or carcinoma in situ of the uterine cervix); history of Deep Vein Thrombosis (DVT) or other hypercoagulation disorders; refractory anemia; history of diabetes or fasting blood glucose value >126 mg/dL; presence of partial or full artificial limb; kidney disease or serum creatinine >1.4 mg/dL; evidence of cardiovascular disease assessed during resting or exercise EKG; untreated hypothyroidism; liver disease; chronic or acute GI disease; uncontrolled severe diarrhea, nausea or vomiting; were actively pursuing weight loss; were enrolled in other clinical trials; could not refrain from smoking over the bed rest study period; or could not discontinue anticoagulant therapy over bed rest period. […]
(§1) After a diet stabilization of 5 days (ambulatory period), subjects remained in bed continuously for 10 days. […] Subjects were constantly monitored by nursing staff and received a daily physical examination by the study physician. […]

[2] = test system: Matrix Metalloproteinase-3 (MMP-3); assay: 10-day bed rest study in healthy elderly subjects: circulating MMP-3 (RBM Human DiscoveryMAP, serum)
Text: (§2) The following inclusion criteria were verified at screening: male or female ≧60 to ≦79 years of age; body mass index (BMI) ≧20 but ≦35; ambulatory with a Short Performance Physical Battery (SPPB) score of ≧9 (fully functional with no mobility limitations); and compliance with prescribed activity level. Exclusion criteria ruled out subjects who had undergone recent major surgery, had active malignancy (excepting basal or squamous cell skin carcinoma or carcinoma in situ of the uterine cervix); history of Deep Vein Thrombosis (DVT) or other hypercoagulation disorders; refractory anemia; history of diabetes or fasting blood glucose value >126 mg/dL; presence of partial or full artificial limb; kidney disease or serum creatinine >1.4 mg/dL; evidence of cardiovascular disease assessed during resting or exercise EKG; untreated hypothyroidism; liver disease; chronic or acute GI disease; uncontrolled severe diarrhea, nausea or vomiting; were actively pursuing weight loss; were enrolled in other clinical trials; could not refrain from smoking over the bed rest study period; or could not discontinue anticoagulant therapy over bed rest period. Potential subjects were also excluded if they were taking any medications known to affect protein metabolism (e.g., progestational agents, steroids, growth hormone, dronabinol, marijuana, HMB, free amino acid supplements, dietary supplements to aid weight loss).
(§3) The 24 healthy subjects initially involved in the study were randomized into two groups. Subjects in the treatment group received two β-hydroxy-β-methylbutyrate (HMB) sachets containing 1.5 grams of Ca-HMB (TSI, Salt Lake City, Utah), 4 grams of maltodextrin, and 200 milligrams of calcium with additional sweetener and flavoring agents. Subjects in the control group received two control sachets that were identical to the HMB sachets with the exclusion Ca-HMB. This study was a double-blinded study. Neither the investigators nor the subjects were informed of the identity of any of the study products during the clinical portion of the study. Subjects were instructed to consume a sachet twice daily by mixing a sachet into a non-caloric, non-caffeinated, non-carbonated, non-milk-based beverage of their choice. Treatment with HMB or Control was initiated 5 days prior to bed rest and was continued until the end of the rehabilitation period.
(§4) For diet stabilization over the pre-bed rest and bed rest periods, subjects were fed a metabolically controlled diet providing the RDA for protein intake (0.8 g protein/kg body weight per day). Total calorie needs were estimated using the Harris-Benedict equation for resting energy expenditure according to the following equation: For women=[655+(9.56×body weight in kg)+(1.85×height in cm)−(4.68×age in years)]×AF, and, For men=[66+(13.7×body weight in kg)+(5×height in cm)−([…]]×AF, where AF=activity factor of 1.6 for the ambulatory period and 1.35 for the bed rest period. Given the total calorie and protein intakes, the remainder of the diet was manipulated to keep the non-protein calories at about 60% from carbohydrates and 40% from fat. Water was provided ad libitum.
(§5) After a diet stabilization of 5 days (ambulatory period), subjects remained in bed continuously for 10 days. While confined to bed rest, subjects were allowed to use the bedside commode for urination or were taken in a wheelchair for toileting. Subjects were given the option of taking a sponge bath or showering in a wheelchair. Prophylactic measures were taken to detect and prevent deep vein thrombosis including a blood d-dimer test followed by an ultrasound examination if d-dimer test was positive, passive range of motion exercise during bed rest, the use of TED hose and SCD over the bed rest period. Subjects were offered medication to help mitigate reflux problems associated with being supine. Subjects were constantly monitored by nursing staff and received a daily physical examination by the study physician. […]

[3] = test system: Matrix Metalloproteinase-1 (MMP-1); assay: 10-day bed rest study in healthy elderly subjects: circulating MMP-1 (RBM Human DiscoveryMAP, serum)
Text: as §2, §3, §4, §1

[4] = test system: Matrix Metalloproteinase-10 (MMP-10); assay: 10-day bed rest study in healthy elderly subjects: circulating MMP-10 (RBM Human DiscoveryMAP, serum)
Text: as §2, §3, §4, §5

[5] = after 10 days of bed rest, 10 HMB treated subjects
[6] = serum, Day 1 of bed rest, after 5 days of Ca-HMB 1.5 g sachet twice daily, n = 10
[7] = serum, end of 10 days bed rest, Ca-HMB 1.5 g sachet twice daily, n = 10
[8] = post- minus pre-bed rest, 10 days, n = 10, ANCOVA vs control p < 0.0001

CC(C)(O)CC(=O)O [HMB, β-hydroxy-β-methylbutyric acid]
effect against development of fibrosis, all 3 markers taken together [1]: protective effect
average decrease in blood levels of MMP-3 [2, 5]: 2.71 ng/mL
change (decrease) in blood levels of MMP-3 [2, 5]: 25%
MMP-3 Change ([2]; post- minus pre-bed rest, 10 days, n = 10, ANCOVA vs control p = 0.0007): -2.71 ± 0.78 ng/mL
effect on the decrease in blood levels of MMP-3 that occurs in untreated control subjects ([2]; prolonged bed rest, vs control): reduces or attenuates the decrease
MMP-3 Pre-bed rest Mean [2, 6]: 10.90 ng/mL
MMP-3 Post-bed rest Mean [2, 7]: 8.19 ng/mL
average increase in circulating levels of MMP-1 [3, 5]: 2.17 ng/mL
MMP-1 Change [3, 8]: 2.17 ± 1.06 ng/mL
effect on the increase in blood levels of MMP-1 that occurs in untreated control subjects ([3]; prolonged bed rest, vs control): enhances the increase
MMP-1 Pre-bed rest Mean [3, 6]: 11.29 ng/mL
MMP-1 Post-bed rest Mean [3, 7]: 13.46 ng/mL
average decrease in blood levels of MMP-10 [4, 5]: 0.09 ng/mL
decrease in blood levels of MMP-10 [4, 5]: 12%
MMP-10 Change [4, 8]: -0.09 ± 0.04 ng/mL
effect on the decrease in blood levels of MMP-10 that occurs in untreated control subjects ([4]; prolonged bed rest, vs control): reduces or attenuates the decrease
MMP-10 Pre-bed rest Mean [4, 6]: 0.60 ng/mL
MMP-10 Post-bed rest Mean [4, 7]: 0.51 ng/mL
